In PubChem BioAssay AID1159585 (Gregory J. Crowther, 2016):
pIC50: −log10 of the molar value.

target: Calcium-dependent protein kinase 1 (Plasmodium falciparum (isolate 3D7)) (UniProt P62344); test: PfCDPK1 kinase inhibitors, biochemical, TCAMS library (AID 1159585); conditions: recombinant PfCDPK1, Kinase-Glo ATP depletion luminescence;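 note: inhibitors leave more ATP so luminescence rises with inhibition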
Sequence (P62344 whole entry, looked up): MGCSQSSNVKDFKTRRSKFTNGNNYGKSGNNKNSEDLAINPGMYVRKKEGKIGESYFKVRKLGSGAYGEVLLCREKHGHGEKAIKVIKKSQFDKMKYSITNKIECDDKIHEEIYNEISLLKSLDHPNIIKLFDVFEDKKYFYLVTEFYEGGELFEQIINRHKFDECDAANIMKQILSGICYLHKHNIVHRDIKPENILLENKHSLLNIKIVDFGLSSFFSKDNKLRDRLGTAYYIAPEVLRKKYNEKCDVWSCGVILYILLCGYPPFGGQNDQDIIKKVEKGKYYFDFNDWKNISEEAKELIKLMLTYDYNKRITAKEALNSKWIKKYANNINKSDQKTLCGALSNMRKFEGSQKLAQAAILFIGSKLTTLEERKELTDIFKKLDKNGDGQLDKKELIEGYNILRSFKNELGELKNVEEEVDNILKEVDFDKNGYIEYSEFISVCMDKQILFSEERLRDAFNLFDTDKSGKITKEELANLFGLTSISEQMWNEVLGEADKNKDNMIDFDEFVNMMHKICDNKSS

SMILES	pIC50
COc1ccc(Nc2ncc3c(-c4cccc(NC(=O)Cc5cccc(O)c5)c4)c[nH]c3n2)cc1OC	6.51
CC(C)(CN)c1nc(-c2ccc(Cl)c(O)c2)c(-c2ccncc2)[nH]1	8.00
CC(C)(CNCc1ccc(C(F)(F)F)cc1)c1nc(-c2ccc(Cl)c(O)c2)c(-c2ccnc(N)n2)[nH]1	6.45
Cc1ccc(Nc2ccnc(Nc3ccc4c(c3)CS(=O)(=O)C4)n2)cc1O	6.38
Fc1cc(Cl)ccc1Nc1ccnc2cc(-c3ccc(CNCCN4CCOCC4)o3)ccc12	6.42
c1cncc(Oc2ccc(Nc3ccnc4cc(-c5cccc(CNCCN6CCOCC6)c5)ccc34)cc2)c1	6.15
CN1CCN(Cc2cccc(-c3ccc4c(Nc5cc(O)c(Cl)cc5F)ccnc4c3)c2)CC1	6.12
COCCNCc1cccc(-c2ccc3c(Nc4cc(O)c(Cl)cc4F)ccnc3c2)c1	6.36
CN(C)CCNCc1nc(-c2ccc3c(Nc4ccc(Oc5ccccc5)cc4)ccnc3c2)cs1	6.05
CCn1c(-c2nonc2N)nc2c(-c3cccc(NC(=O)Nc4cccc(Cl)c4)c3)ncc(OCCCN)c21	6.42
CCN(CC)CCOc1ccc(Nc2ncc3cc(-c4c(Cl)cccc4Cl)c(=O)n(C)c3n2)cc1	6.11
CCn1c(-c2nc(-c3ccnc(N4CCN(C)CC4)c3)cnc2N)nc2cc(S(C)(=O)=O)ccc21	6.18
CN1CCN(Cc2cccc(Nc3nccc(Nc4ccc(Oc5ccccc5)cc4)n3)c2)CC1	6.10
COCCNCc1cccc(-c2ccc3c(Nc4ccc(Oc5ccccc5)cc4)ccnc3c2)c1	6.01
Cc1ccc(Nc2nccc(N(C)c3ccc4c(c3)nc(NC(=O)Cc3ccc(Cl)c(Cl)c3)n4C)n2)cc1S(N)(=O)=O	6.46
CN(C)CCN(C)Cc1ccc(-c2ccc3c(Nc4ccc(Cl)cc4F)ccnc3c2)o1	6.22
c1ccc(Oc2ccc(Nc3ccnc(Nc4ccc5cn[nH]c5c4)n3)cc2)cc1	6.12

SMILES	pIC50
Cc1cccc(Nc2nc(NCCCCN)nc3cc[nH]c(=O)c23)c1	6.25
O=C(NCC(c1ccc(C(F)(F)F)cc1)N1CCCC1)c1cc(-c2ccncc2)c(-c2cccc(O)c2)o1 (stereo not given)	6.55
Oc1cc(-c2nc(C3(CNCc4ccc(Cl)cc4)CCCCC3)[nH]c2-c2ccncc2)ccc1Cl	6.07
CN(C)CCNCc1ccc(-c2ccc3c(Nc4ccc(Cl)cc4F)ccnc3c2)o1	6.43
CC(C)(CNCc1ccc(F)c(F)c1)c1nc(-c2ccc(Cl)c(O)c2)c(-c2ccncc2)[nH]1	6.35
Oc1cccc(Nc2ccnc3cc(-c4nccs4)ccc23)c1	6.00
CN(C)CCNCc1ccc(-c2ccc3c(Nc4ccc(Oc5ccccc5)cc4)ccnc3c2)o1	6.17
CS(=O)(=O)CCNCc1cccc(-c2ccc3c(Nc4ccc(Oc5cccnc5)cc4)ccnc3c2)c1	6.02
CC(C)(CNCc1ccc(Cl)c(Cl)c1)c1nc(-c2ccc(Cl)c(O)c2)c(-c2ccncc2)[nH]1	6.27
NCCNS(=O)(=O)c1ccc(-c2ccnc3[nH]c(-c4ccncc4)cc23)cc1	6.37
Oc1cccc(Nc2ccnc3cc(-c4ccncc4)ccc23)c1	6.05
c1ccc(Oc2ccc(Nc3ccnc4cc(-c5ccc(CNCCN6CCOCC6)o5)ccc34)cc2)cc1	6.36
CCOC(=O)c1cccc(NC(=O)Nc2cccc(-c3ncc(OCCCN)c4c3nc(-c3nonc3N)n4CC)c2)c1	6.53
COc1ccc(-c2cnc3ccc(N4CCCC4)nn23)cc1OC	6.51
CS(=O)(=O)Nc1cccc(-c2cnc3[nH]cc(-c4cccc(CN)c4)c3c2)c1	6.41
CN(C)CCOc1ccc(-c2cc(-c3ccnc(N)n3)c(-c3ccc(Cl)c(O)c3)o2)cc1	6.16
CC(C)(CNC(=O)C1CCN(CCOCc2ccccc2)CC1)c1nc(-c2ccc(Cl)c(O)c2)c(-c2ccncc2)[nH]1	6.13

Further lines, results first:

pIC50	SMILES
7.32	NS(=O)(=O)c1ccc(Nc2nccc(-c3c(-c4cccc(NC(=O)c5c(F)cccc5F)c4)nn4ccccc34)n2)cc1
8.00	Cc1cc(Nc2ncc(C#N)c(Nc3ccccc3C(N)=O)n2)ccc1N1CCN(C)CC1
6.99	O=C(NCCN1CCCCC1)c1ccc(Nc2nccc(Nc3ccc(Oc4ccccc4)cc3)n2)cc1
6.58	CN1CCN(CCCNCc2cccc(Nc3nccc(Nc4ccc(Oc5ccccc5)cc4)n3)c2)CC1
7.82	CCn1c(-c2nonc2N)nc2c(-c3cccc(NC(=O)Nc4cccc(C(F)(F)F)c4)c3)ncc(OCCCN)c21
6.88	CN1CCN(Cc2ccc(-c3ccc4c(Nc5cc(O)c(Cl)cc5F)ccnc4c3)o2)CC1
7.96	CS(=O)(=O)Cc1ccc(Nc2nccc(-c3c(-c4cccc(NC(=O)c5c(F)cccc5F)c4)nn4ncccc34)n2)cc1
6.80	COc1ccc(-c2cnn3ccc(Nc4cc(OC)c(OC)c(OC)c4)nc23)cc1OC
7.43	CS(=O)(=O)Cc1ccc(Nc2nccc(-c3c(-c4cccc(NC(=O)C5CCCCC5)c4)nn4ncccc34)n2)cc1
6.84	CNC(=O)c1ccccc1Nc1nc(Nc2ccc(N3CCOCC3)cc2)ncc1Cl
6.84	O=c1[nH]ccc2nc(N[C@@H]3CCCNC3)nc(Nc3ccc(S(=O)(=O)N4CCOCC4)cc3)c12
6.94	Cn1c(Nc2cc(C(C)(C)C)on2)nc2cc(Nc3ccnc(Nc4cccc(CS(C)(=O)=O)c4)n3)ccc21
7.42	O=C(Nc1cccc(-c2nn3ccccc3c2-c2ccnc(Nc3ccc(NCCCN4CCOCC4)c(F)c3)n2)c1)c1c(F)cccc1F
7.08	CCn1c(-c2nonc2N)nc2c(-c3cccc(NC(=O)NC45CC6CC(CC(C6)C4)C5)c3)ncc(OCCCN)c21
7.01	COc1ccc(Nc2ncc3c(-c4cccc(NC(=O)Cc5ccc(O)cc5)c4)c[nH]c3n2)cc1OC
7.36	Cc1csc(-c2ncc(OC[C@@H](N)Cc3ccccc3)cc2-c2ccc3n[nH]c(C)c3c2)c1
7.85	NCC1(c2nc(-c3ccc(Cl)c(O)c3)c(-c3ccncc3)[nH]2)CCCCC1
7.59	O=C(NC1CC1)c1ccc(Nc2nccc(-c3c(-c4cccc(NC(=O)c5c(F)cccc5F)c4)nn4ccccc34)n2)cc1
6.57	CN(C(=O)c1cc2c(-c3cncnc3)cccc2[nH]1)c1ccccc1
6.59	CC(C)(CNCc1ccc(Cl)cc1)c1nc(-c2ccc(Cl)c(O)c2)c(-c2ccncc2)[nH]1
6.55	Oc1cc(Nc2ccnc3cc(I)ccc23)c(F)cc1Cl
6.80	Cc1ccc(Nc2nc3cc(N(C)c4ccnc(Nc5cccc(CCS(C)(=O)=O)c5)n4)ccc3n2C)cc1
7.30	CS(=O)(=O)Cc1ccc(Nc2nccc(-c3c(-c4cccc(C(=O)Nc5c(F)cccc5F)c4)nn4ccccc34)n2)cc1
7.41	O=C(Nc1cccc(-c2nn3ncccc3c2-c2ccnc(Nc3ccccc3)n2)c1)c1c(F)cccc1F
7.64	Cc1cccc(Nc2nc(N[C@@H]3CCCNC3)nc3cc[nH]c(=O)c23)c1
6.73	CN(C)Cc1ccc(-c2ccc3c(Nc4ccc(Cl)cc4F)ccnc3c2)o1

pIC50	SMILES
7.62	NCCNC(=O)c1ccc(-c2cnc3[nH]cc(-c4ccc(C(N)=O)cc4)c3c2)cc1
6.57	CCn1c(-c2nonc2N)nc2c(-c3cccc(Cl)c3)ncc(OCCCNCc3cnc(C)nc3N)c21
6.74	CCn1c(-c2nonc2N)nc2c(-c3cccc(NC(=O)Nc4cccc(C#N)c4)c3)ncc(OCCCN)c21
7.35	CNC(=O)c1ccccc1Nc1nc(Nc2ccc(N3CCN(C)CC3)nc2)ncc1C
7.33	NCCCOc1cnc(-c2ccccc2)c2nc(-c3nonc3N)n(CCc3ccccc3)c12
7.33	CNC(=O)c1ccccc1Nc1nc(Nc2ccc(CCN3CCN(C)CC3)cc2)ncc1Cl
7.70	NS(=O)(=O)c1cccc(Nc2nccc(-c3c(-c4cccc(NC(=O)c5c(F)cccc5F)c4)nn4ccccc34)n2)c1
6.72	Cc1nc(-c2cccc(Nc3ccnc4cc(-c5nccs5)ccc34)c2)no1
7.68	CC(c1cccc(Nc2nccc(-c3c(-c4cccc(NC(=O)c5c(F)cccc5F)c4)nn4ccccc34)n2)c1)S(C)(=O)=O (stereo not given)
6.67	CN1CCC=C(C(=O)NCC(C)(C)c2nc(-c3ccc(Cl)c(O)c3)c(-c3ccncc3)[nH]2)C1
7.64	O=C(Nc1cccc(-c2nn3ncccc3c2-c2ccnc(Nc3cccc(-c4cnco4)c3)n2)c1)c1c(F)cccc1F
6.84	CS(=O)(=O)Cc1ccc(Nc2nccc(N3CCCc4cc(NC(=O)Nc5cccc(C(F)(F)F)c5)ccc43)n2)cc1
6.55	Nc1ncc(-c2cn[nH]c2)cc1-c1nc2ncc(Cl)cc2[nH]1
6.86	CN1CCN(CCCNCc2ccc(Nc3nccc(Nc4ccc(Oc5ccccc5)cc4)n3)cc2)CC1
6.62	Cc1ccc(Nc2nccc(Nc3ccc4c(c3)nc(Nc3cc(C(C)(C)C)on3)n4C)n2)cc1S(C)(=O)=O
6.66	O=C(NCCN1CCC(c2ccncc2)CC1)c1cccc(Nc2nccc(Nc3ccc(Oc4ccccc4)cc3)n2)c1
7.48	O=c1[nH]ccc2nc(N[C@@H]3CCNC3)nc(Nc3cc(Cl)cc(Cl)c3)c12
7.04	O=C(Nc1cccc(-c2nn3ccccc3c2-c2ccnc(Nc3ccc(C(=O)N4CCOCC4)cc3)n2)c1)c1c(F)cccc1F
7.06	COc1cccc(Nc2nccc(-c3c(-c4cccc(NC(=O)c5c(F)cccc5F)c4)nn4ccccc34)n2)c1
7.49	CCn1c(-c2nonc2N)nc2c(-c3cccc(NC(=O)Nc4ccccc4OC)c3)ncc(OCCCN)c21
7.03	O=C(NCCCN1CCCCC1)c1ccc(Nc2nccc(Nc3ccc(Oc4ccccc4)cc3)n2)cc1
6.67	O=C(NCCN1CCCC1)c1cccc(Nc2nccc(Nc3ccc(Oc4ccccc4)cc3)n2)c1
6.87	O=C(NCCN1CCC(c2ccncc2)CC1)c1ccc(Nc2nccc(Nc3ccc(Oc4ccccc4)cc3)n2)cc1
7.92	CN1CCN(c2ccc(Nc3ncc(C#N)c(Nc4ccccc4C(N)=O)n3)cc2)CC1
6.82	COCCOc1ccc(Nc2nccc(-c3c(-c4cccc(NC(=O)c5c(F)cccc5F)c4)nn4ccccc34)n2)cc1Cl
